The values below come from the METLIN SMRT retention time set (Domingo-Almenara et al. 2019).

Each structure is given as a SMILES string.

The nature of this data set: gradient 5% acetonitrile 3 min, to 50% in 2 min, to 85% in 15 min, held 3 min, 100 µL/min. The following applies: column: Zorbax Extend-C18 2.1 x 50 mm; eluents: water / acetonitrile, 0.1% formic acid. In short, it runs like this: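 Each retention time is based on an adduct peak selected computationally and verified by manual inspection. Measurements used HPLC–quadrupole time-of-flight mass spectrometry in positive and negative ionization mode on mixtures of ~100 pure standards. Chromatography ran on a Zorbax Extend-C18 column (2.1 × 50 mm, 1.8 μm) at 100 μL/min with water and acetonitrile, each containing 0.1% formic acid, and dead and dwell volumes of 40 μL and 900 μL.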
`CCOCCCNC(=O)C(C)n1c(=O)c(C(F)(F)F)nc2cc(C)c(C)cc21` (centres undefined): the RP-LC retention time stood at 1080 s.
Compound `Cc1ccc(NS(=O)(=O)c2ccc(-c3c(C)noc3C)cc2)c(Cl)c1` showed an RP-LC retention time of 1020 s.
Compound `Cc1nnc(-c2ccc3ccn(CC(=O)Nc4ccc(F)cc4F)c3c2)o1` had an RP-LC retention time of 801 s.
With `CCc1nnc2ccc(-c3noc(-c4cc(F)ccc4F)n3)cn12`, the RP-LC retention time was determined as 896 s.
Compound `Cc1cc2nc(C)c(CCC(=O)O)c(C)n2n1` displayed an RP-LC retention time of 597 s.
Consider `Cc1ccccc1CNC(=O)C1(C)Oc2cccnc2N(C(C)C)C1=O` (centres undefined), for which the RP-LC retention time is 978 s.
In turn, `Cc1ccccc1OCC(=O)Nc1cnn(C)c(=O)c1N1CCOCC1` displayed an RP-LC retention time of 810 s.
Regarding `Cc1ncsc1C1N(C2CCN(C(=O)C3CCC3)CC2)C(=O)C12CCCC2` (centres undefined), the RP-LC retention time worked out at 661 s.
Take `Cc1cc(C)c2c(N3CCSCC3)nc(C(=O)N3CCN(c4ccccc4)CC3)nc2n1`: the RP-LC retention time turned out to be 722 s.
In turn, `CC(C)n1cnc2c(NCCc3ccc(O)cc3)nc(-c3csc4ccccc34)nc21` came in with an RP-LC retention time of 1160 s.
Take `O=C(Nc1ccc2c(c1)OCCO2)N1CCCn2nc(-c3cccc(Cl)c3)cc2C1`: the RP-LC retention time was found to be 919 s.
As to `O=C(NCCCc1ccccc1)C1CCN(C(=O)c2ncn3c2COC(c2ccccc2)C3)CC1` (centres undefined), the RP-LC retention time came to 821 s.
Turning to `CN(CCc1noc(-c2ccc(F)cc2)n1)C(=O)Nc1ccccc1Cl`, the RP-LC retention time was found to be 983 s.
`Cc1ccc2[nH]cc(CCNC(=O)Nc3ccc(Cl)cc3)c2c1` showed an RP-LC retention time of 962 s.
Then `c1cc(-c2noc(-c3cccc4[nH]ccc34)n2)cc(-c2ccn[nH]2)c1`, with 900 s; and `CC(=O)N1CCc2cc(N3CC(C(=O)Nc4cc(Cl)ccc4F)CC3=O)ccc21` (centres undefined), with 768 s.
As to `CN1CCN(C(=O)Cn2c(-c3cccs3)cc3ccccc32)CC1`, the RP-LC retention time amounted to 671 s.
The compound `CCn1c(=O)n(CC)c2cc(N3CCCC3)c(NC(=O)NCc3ccc(OC)cc3)cc21` yielded an RP-LC retention time of 643 s.
Then `CC(C)(C)c1ccc(-c2noc(Cn3c(=O)n(CCc4ccccc4)c(=O)c4sccc43)n2)cc1`, with 1360 s; and `COCCNC(=O)Cc1ccc(NC(=O)c2ccc(C(C)(C)C)cc2)cc1`, with 790 s; and `Cc1oc(-c2[nH]ncc2C(=O)N2CCCC2)cc1S(=O)(=O)Nc1ccccc1F`, with 676 s.
Regarding `Cc1cccc(NC(=O)C2CCc3nc(N4CCOCC4)ncc3C2)c1` (centres undefined), the RP-LC retention time was determined as 786 s.
Then `CCc1ccc(NC(=O)C2CCN(C(=O)C3Sc4ccccc4NC3=O)CC2)cc1` (centres undefined), with 760 s; and `COC(=O)c1c(-c2cccs2)csc1NC(=O)c1cc(OC)c(OC)c(OC)c1`, with 1120 s; and `O=C(c1ccccc1F)N1CCN(c2cc(-c3cccs3)[nH]n2)CC1`, with 771 s.
Consider `COc1cccc(-c2noc(C3CCCN3C(=O)Nc3ccccc3C)n2)c1` (centres undefined), for which the RP-LC retention time stood at 877 s.
`CCc1noc(NC(C)=O)c1-c1ccc(OC)c(S(=O)(=O)N2CCCc3ccccc32)c1` showed an RP-LC retention time of 879 s.
For `CCCn1ccc2oc(C)c(C(=O)N3CCN(c4ccc(OC)cc4)CC3)c2c1=O`, the RP-LC retention time stood at 707 s.
With `Cc1cc(N2CCN(C(=O)Nc3ccccc3Cl)CC2)nc(N2CCOCC2)n1`, the RP-LC retention time came to 637 s.
`Cc1nnc(SCC(=O)N2CCN(c3nnnn3-c3ccccc3)CC2)s1` gave an RP-LC retention time of 653 s.
In turn, `COCCN1CC2(CCN(S(=O)(=O)c3ccccc3Cl)CC2)C1c1ccccc1` (centres undefined) displayed an RP-LC retention time of 719 s.
Consider `COC(=O)c1nc(NC(=O)Cn2nc3c(cc2=O)CCCCC3)sc1C(C)C`, for which the RP-LC retention time worked out at 864 s.
As to `O=S(=O)(c1cccn2c(SCc3cccc(Cl)c3)nnc12)N1CCCC1`, the RP-LC retention time was 860 s.
The compound `O=C(CN1CCN(Cc2ccc(F)cc2)C1=O)NCc1ccc(F)cc1F` showed an RP-LC retention time of 809 s.
On to `CCc1ccccc1NC(=O)N1CCC(n2cnc3ccccc3c2=O)CC1`, for which the RP-LC retention time was determined as 744 s.
With `CN1C(=O)c2cccn2CC1CNS(=O)(=O)c1ccccc1` (centres undefined) the figure was 668 s.
In turn, `Cc1sc(-c2cc(C(F)(F)F)on2)cc1S(=O)(=O)Nc1cccc(Cl)c1` returned an RP-LC retention time of 1180 s.
`CCOC(=O)c1cccc(NC(=O)Cn2ccc3ccc(-c4nnc(CC)o4)cc32)c1` displayed an RP-LC retention time of 910 s.
On to `Cc1ccc(-c2noc(-c3ccc(NC(=O)c4ccc(Br)o4)cc3)n2)cc1`, for which the RP-LC retention time is 1290 s.
Take `Cc1nnc(-c2cn(CC(=O)Nc3cccc(Br)c3)c3ccccc23)o1`: the RP-LC retention time is 893 s.
Regarding `CC(=O)Oc1ccccc1C1=NN(C(C)=O)C(c2ccccc2Cl)O1` (centres undefined), the RP-LC retention time is 974 s.
`CC(C)(NC(=O)c1cc(Cl)c2ccccc2c1O)C(=O)O` had an RP-LC retention time of 1010 s.
Compound `Cc1cc(OCC(O)Cn2c(C3CC(=O)N(C(C)(C)C)C3)nc3ccccc32)cc(C)c1Cl` (centres undefined) had an RP-LC retention time of 878 s.
Compound `COc1cc(NC(=O)CN2C(=O)C(C)(C)c3cc(C)ccc32)cc(OC)c1OC` registered an RP-LC retention time of 823 s.
For the compound `COc1ccc(-c2c(C(=O)Nc3ccc(C(C)=O)cc3)nc3ccccn23)cc1`, the RP-LC retention time worked out at 939 s.
With `O=C(c1ccccc1F)N1CCC(CNS(=O)(=O)c2ccc(C(F)(F)F)cc2)CC1` the figure was 847 s.
Then `CC(C)N1CCN(C(=O)c2csc(N3CCN(c4ccccc4)CC3)n2)CC1`, with 578 s; and `COc1cccc(-n2c(=O)c3sccc3n(Cc3nc(-c4ccccc4C)no3)c2=O)c1`, with 1000 s; and `COc1ccc(-n2ccn3cc(-c4cccs4)nc3c2=O)cc1Cl`, with 818 s.
`CCc1ccc(Nc2c(C(=O)N3CCC(C)CC3)cnc3nc(C)ccc23)cc1` displayed an RP-LC retention time of 699 s.
Take `Cc1cc(Cl)ccc1S(=O)(=O)N1CC(c2nc(-c3ccncc3)no2)C1`: the RP-LC retention time worked out at 931 s.
`c1ccc(CCc2nc(-c3ccnc(N4CCOCC4)c3)no2)cc1` displayed an RP-LC retention time of 919 s.
For the compound `c1ccc(-n2nnc(-c3noc(-c4ccncc4)n3)c2-c2ccncc2)cc1`, the RP-LC retention time is 732 s.
For `Cc1cc(C)cc(N2C(=O)CN(CC(C)C)[C@H]3CS(=O)(=O)C[C@H]32)c1`, the RP-LC retention time stood at 619 s.
As to `CCc1ccc(NC(=O)Cn2cnc3nc(N4CCCC(C(=O)NC5CC5)C4)sc3c2=O)cc1` (centres undefined), the RP-LC retention time amounted to 743 s.
Then `COc1ccc(-c2c(C)noc2NC(C)=O)cc1S(=O)(=O)Nc1cccc(C#N)c1`, with 708 s; and `CCOc1ccc(NC(=O)N2C[C@H]3C[C@H](C2)[C@H]2CCCC(=O)N2C3)cc1`, with 654 s; and `Cc1cc2c(N3CCCC(C(=O)NCc4ccc(Br)cc4)C3)nccc2s1` (centres undefined), with 702 s.
The compound `COc1ccc(Cn2nccc2NC(=O)COc2ccc(Cl)cc2)cc1` displayed an RP-LC retention time of 882 s.
Then `CSc1ccccc1CN1CCC(CNC(=O)C2(c3ccc(F)cc3)CC2)CC1`, with 596 s; and `O=C(NCc1ccco1)c1cn(-c2cc(N3CCOCC3)ncn2)cn1`, with 651 s; and `O=C(Nc1ccc2c(c1)CN(C(=O)c1cc(C3CC3)[nH]n1)CCO2)C1CC1`, with 696 s.
With `CNC(=O)c1cc(N2CCOCC2)nc2ccc(F)cc12` the figure was 590 s.
`Cc1ccn2cc(C(=O)N3CCN(c4cccc(C)c4C)CC3)nc2c1`: the RP-LC retention time came out at 769 s.
Then `CCOC(=O)C1C(=O)C=C(c2cccs2)CC1c1ccc(OCC)cc1` (centres undefined), with 1060 s; and `CC(=O)N1CCc2cc(CNS(=O)(=O)c3ccccc3F)ccc21`, with 738 s; and `CCOc1ccc(N2CC(CNS(=O)(=O)c3ccccc3C(F)(F)F)CC2=O)cc1` (centres undefined), with 824 s.
Regarding `CCCNC(=O)C1CCCN(c2ccc(SCC(=O)Nc3ccc(F)cc3F)nn2)C1` (centres undefined), the RP-LC retention time stood at 657 s.
`CCOCCCNC(=O)CCc1c(-c2ccc(F)cc2)nc2ccccn12` came in with an RP-LC retention time of 588 s.
`COc1cc(OC)cc(N2C(=O)C3N=NN(Cc4nc(-c5ccc(Cl)cc5)no4)C3C2=O)c1` (centres undefined) displayed an RP-LC retention time of 1020 s.
`O=C(NCc1cccc(C(F)(F)F)c1)C1CCCN(c2nccnc2Sc2ccccc2)C1` (centres undefined) displayed an RP-LC retention time of 1100 s.
`Cc1ccc(N2C(=O)CN(S(C)(=O)=O)CC2(C)C(=O)NC2CCCCCC2)cc1Cl` (centres undefined) yielded an RP-LC retention time of 946 s.
The compound `CC(=O)N1CCc2cc(N3CC(C(=O)NCc4ccccc4C(F)(F)F)CC3=O)ccc21` (centres undefined) came in with an RP-LC retention time of 748 s.
`CN(C)c1ccc(-c2nc3cnccn3c2Nc2ccc(Cl)cc2)cc1` displayed an RP-LC retention time of 880 s.
For the compound `CC(C)CCNC(=O)C1Cn2cccc2C(=O)N1C` (centres undefined), the RP-LC retention time worked out at 668 s.
For the compound `CNC(=O)c1nc(C(C)(C)NC(=O)c2ccoc2)nc2c1OCO2`, the RP-LC retention time stood at 624 s.
Then `COc1ccc(-c2nnc(-c3ccccc3)o2)cc1S(=O)(=O)NCC(=O)O`, with 703 s.
In the case of `O=C(NCCCN1CCc2ccccc2C1)c1nnc(-c2ccc(S(=O)(=O)N3CCCC3)cc2)o1`, the RP-LC retention time turned out to be 680 s.
With `CCCNC(=O)Nc1ccc(NC(=O)N2CCCC(C(=O)NCC3CCCCC3)C2)cc1` (centres undefined), the RP-LC retention time was 776 s.
